# Measured values published in US20220304953A1, “PHARMACEUTICAL DOSAGE FORM COMPRISING METFORMIN AND CALCIUM CITRATE” (DSM IP ASSETS B.V., priority 2019, published 2022).
# Tests used:
# [1] = compared to calcium carbonate; cited from earlier work
# [2] = Tablet hardness (Krämer UTS4 1, force needed to break a tablet axially); type: physicochemical; conditions: tablets of example 2 with the named calcium salt, Prosolv SMCC90 binder; in words
# Procedure: For compressing the tablets, a single punch press (Korsch XP-1, available at Korsch, Berlin) was used.
# Tablet hardness was then measured using a Krämer UTS4 1 apparatus.
# Said four tablet mixtures were compressed into tablets, similar to example 2. Tablet hardness was then measured.
# Tablet hardness was measured as described in USP <1217> and EP<2.9.8.> with a Krämer UTS4 1 tester (Kraemer Elektronik GmbH, Darmstadt, Germany). The inventors measured the force needed to break a tablet axially. Presented are the average values of 10 measurements.
Compound,bioavailability [1],"tablet hardness (compression profiles, FIG. 1) [2]"
O=C([O-])CC(O)(CC(=O)[O-])C(=O)[O-].O=C([O-])CC(O)(CC(=O)[O-])C(=O)[O-].[Ca+2].[Ca+2].[Ca+2] [calcium citrate],superior bioavailability than calcium carbonate,
anhydrous calcium citrate,,a lot worse
